Data as given in patent publication US10272098B2, “Chelated drug delivery systems” (Drexel University, priority 2013, dated 2019).
Where a name gives a salt, the structure may show the parent alone.

How the values were obtained:
[1] = system: 3T3 fibroblast cells; experiment: Cytotoxicity cell counting assay in 3T3 fibroblasts; assay type: cell-based; settings: 24 h; complex with 4 μg MH in 100 μl or 40 μg/mL fresh MH; vs untreated control
Protocol: After 24 h, cell viability was determined using a cell counting assay (Roche) according to the manufacturer's instruction, and cell morphology was imaged by staining the cells with cresyl violet (0.5 mg/mL) for 30 min after the cells were fixed. In vitro cytotoxicity of the polyelectrolyte MH/DS/metal ion complexes were studied by using 3T3 fibroblast cells. […] Cell morphology was examined after treatment with MH/DS/metal ion complexes (FIGS. 7C-7F).

[2] = systemic administration of 200 mg MH daily (3 mg/kg); human subjects; cited from earlier work
[3] = system: NIH 3T3 fibroblasts; experiment: Fresh DOX dose- and time-dependent treatment; assay type: cell-based; settings: nine-day treatment with 0.2 μg/mL DOX; vs untreated control
Excerpt: The medium was changed every 24 hr.

[4] = cited from earlier work
[5] = system: MDA-MB-231 cells; experiment: Fresh DOX dose- and time-dependent treatment

Row | SMILES | 3T3 fibroblast viability (cell counting assay) [1] | MH in the cerebrospinal fluid (CSF) [2] | cell viability of fibroblasts [3] | time stock solution is stable ([4]; 4 degree) [month] | DOX degraded ([4]; cell culture medium at 37° C., 4 days) | time solution is stable ([4]; room temperature, Adriamycin instruction booklets) [days] | time in which all the cancer cells were completely killed ([5]; DOX 0.2 μg/mL) [days] | DOX concentration range that effectively kills cancer cells with minimal fibroblast cytotoxicity ([5]; for 5-9 days) [µg/mL]
1 | CN(C)c1ccc(O)c2c1C[C@H]1C[C@H]3[C@H](N(C)C)C(O)=C(C(N)=O)C(=O)[C@@]3(O)C(O)=C1C2=O [MH, Minocycline hydrochloride] | no significant difference | about 0.5 μg/mL | – | – | – | – | – | –
2 | COc1cccc2c1C(=O)c1c(O)c3c(c(O)c1C2=O)C[C@@](O)(C(=O)CO)C[C@@H]3O[C@H]1C[C@H](N)[C@H](O)[C@H](C)O1 [DOX, doxorubicin] | – | – | did not significantly reduce the cell viability | 1 | 30%-40% | 7 | 8 | 0.1 to 0.4
